Experimental data from the supplement of paper PMC8967900.

Key:
Assay in all cases: selective drug sensitivity score (sDSS, relative to normal bone marrow) (sDSS (score)); higher = more potent and effective on the cell line relative to normal bone marrow cells
Settings in all cases: 72 h
NALL-1 = system: NALL-1
MHH-CALL-3 = system: MHH-CALL-3
KASUMI-9 = system: KASUMI-9
MHH-CALL-2 = system: MHH-CALL-2
NALM-16 = system: NALM-16
COG-LL-319h = system: COG-LL-319h
MHH-CALL-4 = system: MHH-CALL-4
NALM-6 = system: NALM-6
JURKAT = system: JURKAT
KASUMI-10 = system: KASUMI-10
PF-382 = system: PF-382
380 = system: 380
RPMI-8402 = system: RPMI-8402
PEER = system: PEER
COG-LL-355h = system: COG-LL-355h
ALL-SIL = system: ALL-SIL
REH = system: REH
TMD5 = system: TMD5
KARPAS-45 = system: KARPAS-45
MN-60 = system: MN-60
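Further: ALL cell lines in 384-well plates, five doses spanning 10,000-fold, each plate scaled between vehicle and 100 µmol/L benzalkonium chloride controls, sDSS an adapted area-under-curve metric.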

| SMILES | selective drug sensitivity score (NALL-1) | selective drug sensitivity score (MHH-CALL-3) | selective drug sensitivity score (KASUMI-9) | selective drug sensitivity score (MHH-CALL-2) | selective drug sensitivity score (NALM-16) | selective drug sensitivity score (COG-LL-319h) | selective drug sensitivity score (MHH-CALL-4) | selective drug sensitivity score (NALM-6) | selective drug sensitivity score (JURKAT) | selective drug sensitivity score (KASUMI-10) | selective drug sensitivity score (PF-382) | selective drug sensitivity score 380 | selective drug sensitivity score (RPMI-8402) | selective drug sensitivity score (PEER) | selective drug sensitivity score (COG-LL-355h) | selective drug sensitivity score (ALL-SIL) | selective drug sensitivity score (REH) | selective drug sensitivity score (TMD5) | selective drug sensitivity score (KARPAS-45) | selective drug sensitivity score (MN-60) |
| --- | --- | --- | --- | --- | --- | --- | --- | --- | --- | --- | --- | --- | --- | --- | --- | --- | --- | --- | --- | --- |
| COC(=O)c1ccc([C@H]2c3[nH]c4ccccc4c3C[C@H](C(=O)OC)N2C(=O)CCl)cc1 [RSL3] (top concentration 10000 nM) | 5.2 | 0.7 | 0 | 0.1 | 0 | 0 | 0 | 1.5 | 0 | 0.3 | 0.9 | 14.2 | 1.2 | 0 | 3.8 | 0 | 3.1 | 0 | 0 | 0 |
| Cc1cnc(NC(=O)Nc2cc(Br)c(C)cc2OC[C@@H]2CNCCO2)cn1 [Rabusertib] (top concentration 1000 nM) | -0.74 | -0.74 | -0.04 | 0.66 | -0.74 | 4.26 | 0.16 | 1.16 | -0.74 | -0.74 | -0.64 | -0.74 | 0.46 | -0.74 | 1.96 | -0.74 | 0.06 | -0.74 | 0.36 | 3.56 |
| CCOCc1nc2c(N)nc3ccccc3c2n1CC(C)(C)O [Resiquimod] (top concentration 10000 nM) | -4.92 | -4.82 | -4.92 | -4.92 | -4.92 | 5.68 | -4.92 | -4.42 | -4.52 | -2.72 | -4.72 | -4.62 | -4.92 | -4.92 | -4.92 | -4.92 | -4.92 | -4.92 | -4.92 | -1.82 |
| C[C@H]1CNCCCN1S(=O)(=O)c1cccc2cncc(F)c12 [Ripasudil] (top concentration 10000 nM) | -0.22 | -0.22 | -0.22 | -0.02 | -0.22 | 1.18 | 0.18 | -0.22 | -0.22 | -0.22 | -0.22 | 3.28 | 0.98 | 1.88 | -0.22 | 0.78 | -0.22 | 0.98 | 0.88 | -0.22 |
| Cc1nc(C(=O)NCC(=O)O)c(O)c2ccc(Oc3ccccc3)cc12 [Roxadustat] (top concentration 10000 nM) | -1.12 | -1.12 | -0.82 | -1.12 | -1.12 | 2.28 | -1.12 | -1.12 | -0.42 | -1.12 | -0.52 | 7.48 | -0.82 | 0.58 | -1.12 | -1.12 | -1.12 | -1.12 | -1.12 | -1.12 |
| CN(C)C[C@@H]1CCn2cc(c3ccccc32)C2=C(C(=O)NC2=O)c2cn(c3ccccc23)CCO1 [Ruboxistaurin] (top concentration 10000 nM) | -3.04 | -4.24 | 1.36 | 3.66 | -3.74 | -1.04 | 1.46 | -2.64 | -1.84 | 1.96 | -1.34 | 3.96 | -1.74 | 0.46 | 1.26 | -2.94 | -0.54 | 0.46 | -0.14 | -5.44 |
| CN(CC(=O)N(Cc1ccc(C2CCCCC2)cc1)c1ccc(C(=O)O)cc1)S(=O)(=O)c1c(F)c(F)c(F)c(F)c1F [SH-4-54] (top concentration 25000 nM) | -6.84 | -0.84 | -6.14 | -7.24 | -5.04 | -3.04 | -5.44 | -3.34 | -6.14 | -3.64 | -3.74 | 6.06 | -5.74 | -4.54 | -0.54 | -3.84 | -5.04 | -5.94 | -4.24 | -6.54 |
| Cc1cc2c(C(=O)NC[C@H](C)c3ccccc3)c(O)c(O)cc2c(O)c1-c1c(C)cc2c(C(=O)NC[C@H](C)c3ccccc3)c(O)c(O)cc2c1O [Sabutoclax] (top concentration 25000 nM) | -8.22 | -8.12 | 14.9 | -7.82 | 6.78 | 10.8 | -7.22 | 14.3 | 16.7 | 5.18 | 11.1 | 14.1 | 4.38 | 14.5 | 15.6 | 12.2 | 17.5 | -7.42 | 16.2 | 13 |
| CC1=C2C[C@H]3[C@@H](CC[C@@H]4C[C@H](NS(C)(=O)=O)CC[C@@]43C)[C@@H]2CC[C@@]2(C1)O[C@@H]1C[C@H](C)CN[C@H]1[C@H]2C [Saridegib] (top concentration 10000 nM) | -0.26 | 0.34 | -0.06 | 3.14 | 0.04 | -0.06 | 3.14 | -1.16 | -0.56 | -1.16 | 0.34 | -0.96 | 0.54 | 2.94 | -0.96 | -1.16 | -1.16 | 1.74 | 3.44 | -1.16 |
